From US9301999B2 (priority 2009, dated 2016)
Values joined by “and” are separate entries in the source; they are usually repeats but may differ in a detail not shown here. Equal values may be shown once. Where no end group is shown, it is not given here.

What was measured:
[1] = test system: MC/9 mast cells; assay type: cell-based, murine; design: MCD10: concentration of peptide necessary to induce degranulation of 10% of mast cells: unit not given here; details: for EC50: read-out: MCD50: concentration of peptide necessary to induce degranulation of 50% of mast cells
[2] = test system: anti-rPA IgG; design: species or system female C3H/HeN mice; details: mouse, in vivo
[3] = test system: anti-WNV IgG; assay type: in vivo, Female BALB/c mice; details: nasal, days 0, 7 and 21, WNV antigen 1 μg + 0.25 or 1.25 nmoles peptide; for Anti-WNV IgG titers in sera on day 28, versus antigen alone: ANOVA p<0.05; for anti-WNV IgG titers, difference versus mice that received MP7: serum day 28
[4] = test system: anti-PA IgG; design: species or system Female C3H/HeN mice; details: mouse, in vivo
[5] = test system: anti-rPA IgG; design: species or system female C3H mice; details: mouse, in vivo
[6] = test system: anti-rPA serum IgG; design: species or system C3H/HeN female mice; details: mouse, in vivo

I N L K A F A A L A K K I L (INLKAFAALAKKIL) [MP-6F]
MCD10: concentration of peptide necessary to induce degranulation of 10% of mast cells [1]: 58.40

I N L K A I A A L A K K I L (INLKAIAALAKKIL) [MP-6I]
MCD10: concentration of peptide necessary to induce degranulation of 10% of mast cells [1]: 61.14

I N L K A L A A L A K A L L [MP7-Ac-NH2]
% Mast Cell Degranulation [1]: 54.46% and 47.52% and 29.89%

I N L K A L A A L A K A L L [MP7-Ac]
% Mast Cell Degranulation [1]: 0.31%

I N L K A L A A L A K A L L [MP7-OH]
% Mast Cell Degranulation [1]: 2.87%
serum anti-rPA IgG titers, difference between the -OH and -NH2 forms [2]: no significant difference

I N L K A L A A L A K E I L (INLKALAALAKEIL) [MP-12E]
MCD10: concentration of peptide necessary to induce degranulation of 10% of mast cells [1]: 40.32

I N L K A L A A L A K F I L [MP-12F-Ac-NH2]
% Mast Cell Degranulation [1]: 87.65% and 83.36% and 67.41%

I N L K A L A A L A K F I L [MP-12F-Ac]
% Mast Cell Degranulation [1]: 2.75%

I N L K A L A A L A K F I L [MP-12F-NH2]
% Mast Cell Degranulation [1]: 95.24% and 87.57% and 70.01%

I N L K A L A A L A K F I L [MP-12F-OH]
% Mast Cell Degranulation [1]: 38.07%

I N L K A L A A L A K G I L (INLKALAALAKGIL) [MP-12G]
MCD10: concentration of peptide necessary to induce degranulation of 10% of mast cells [1]: 68.76

I N L K A L A A L A K H I L (INLKALAALAKHIL) [MP-12H]
MCD10: concentration of peptide necessary to induce degranulation of 10% of mast cells [1]: 23.86

I N L K A L A A L A K I I L [MP-12I-Ac-NH2]
% Mast Cell Degranulation [1]: 87.97% and 67.63% and 46.09%

I N L K A L A A L A K I I L [MP-12I-Ac]
% Mast Cell Degranulation [1]: 0%

I N L K A L A A L A K I I L [MP-12I-NH2]
% Mast Cell Degranulation [1]: 81.66% and 70.13% and 49.9%

I N L K A L A A L A K I I L [MP-12I-OH]
% Mast Cell Degranulation [1]: 0%

I N L K A L A A L A K K C L (INLKALAALAKKCL) [MP-13C]
MCD10: concentration of peptide necessary to induce degranulation of 10% of mast cells [1]: 17.27

I N L K A L A A L A K K F L (INLKALAALAKKFL) [MP-13F]
MCD10: concentration of peptide necessary to induce degranulation of 10% of mast cells [1]: 24.37

I N L K A L A A L A K K L L (INLKALAALAKKLL) [MP-13L]
MCD10: concentration of peptide necessary to induce degranulation of 10% of mast cells [1]: 22.46

I N L K A L A A L A K K M L (INLKALAALAKKML) [MP-13M]
MCD10: concentration of peptide necessary to induce degranulation of 10% of mast cells [1]: 64.54

I N L K A L A A L A K K W L (INLKALAALAKKWL) [MP-13W]
MCD10: concentration of peptide necessary to induce degranulation of 10% of mast cells [1]: 22.76

I N L K A L A A L A K L I L [MP-12L-Ac-NH2]
% Mast Cell Degranulation [1]: 80.35% and 76.49% and 58.57%

I N L K A L A A L A K L I L [MP-12L-Ac]
% Mast Cell Degranulation [1]: 1.07%

I N L K A L A A L A K L I L [MP-12L-NH2]
% Mast Cell Degranulation [1]: 83.36% and 67.37% and 51.29%

I N L K A L A A L A K L I L [MP-12L-OH]
% Mast Cell Degranulation [1]: 21.36%

I N L K A L A A L A K N I L (INLKALAALAKNIL) [MP-12N]
MCD10: concentration of peptide necessary to induce degranulation of 10% of mast cells [1]: 31.86

I N L K A L A A L A K Q I L (INLKALAALAKQIL) [MP-12Q]
MCD10: concentration of peptide necessary to induce degranulation of 10% of mast cells [1]: 18.73

I N L K A L A A L A K R I L (INLKALAALAKRIL) [MP-12R]
MCD10: concentration of peptide necessary to induce degranulation of 10% of mast cells [1]: 23.29

I N L K A L A A L A K S I L (INLKALAALAKSIL) [MP-12S]
MCD10: concentration of peptide necessary to induce degranulation of 10% of mast cells [1]: 22.50

I N L K A L A A L A K W I L [MP-12W-Ac]
% Mast Cell Degranulation [1]: 38.76%

I N L K A L A A L A K W I L [MP-12W-NH2]
% Mast Cell Degranulation [1]: 79.87% and 85.74% and 80.05%

I N L K A L A A L A K W I L [MP-12W-OH]
% Mast Cell Degranulation [1]: 23.83%

I N L K A W A A L A K K I L (INLKAWAALAKKIL) [MP-6W]
MCD10: concentration of peptide necessary to induce degranulation of 10% of mast cells [1]: 24.99

INLKALAALAKAIL [MP-12A, I N L K A L A A L A K A I L]
MCD10: concentration of peptide necessary to induce degranulation of 10% of mast cells [1]: 8.88
EC50 [1]: 25.3 µM

INLKALAALAKALLGGGINLKALAALAKALL-NH2 [MP7-2XB]
% MC/9 Degranulation [1]: 40.49% and 56.90%

INLKALAALAKALLINLKALAALAKALL-NH2 [MP7-2X]
% MC/9 Degranulation [1]: 33.60% and 47.80%

INLKALAALAKALLSGGRGGINLKALAALAKALL-NH2 [MP7-2XA]
% MC/9 Degranulation [1]: 50.20% and 78.40%

INLKALAALAKCIL [MP-12C, I N L K A L A A L A K C I L]
MCD10: concentration of peptide necessary to induce degranulation of 10% of mast cells [1]: 5.33
EC50 [1]: 23.8 µM

INLKALAALAKFIL [MP-12F, I N L K A L A A L A K F I L]
MCD10: concentration of peptide necessary to induce degranulation of 10% of mast cells [1]: 4.39
EC50 [1]: 9.22 µM
Anti-WNV IgG titers in sera on day 28, versus antigen alone [3]: significantly greater
anti-WNV IgG titers, difference versus mice that received MP7 [3]: no significant difference

INLKALAALAKIIL [MP-12I, I N L K A L A A L A K I I L]
MCD10: concentration of peptide necessary to induce degranulation of 10% of mast cells [1]: 2.32
EC50 [1]: 12 µM
Anti-WNV IgG titers in sera on day 28, versus antigen alone [3]: significantly greater
anti-WNV IgG titers, difference versus mice that received MP7 [3]: no significant difference

INLKALAALAKKIL [Mastoparan-OH]
serum anti-rPA IgG titer versus mice immunized with rPA alone [2]: not significantly different
adjuvant activity as determined by serum anti-PA IgG endpoint titers [4]: provided adjuvant activity

INLKALAALAKLIL [MP-12L, I N L K A L A A L A K L I L]
MCD10: concentration of peptide necessary to induce degranulation of 10% of mast cells [1]: 2.30
EC50 [1]: 5.19 µM
Anti-WNV IgG titers in sera on day 28, versus antigen alone [3]: significantly greater
anti-WNV IgG titers, difference versus mice that received MP7 [3]: no significant difference

INLKALAALAKMIL [MP-12M, I N L K A L A A L A K M I L]
MCD10: concentration of peptide necessary to induce degranulation of 10% of mast cells [1]: 2.96
EC50 [1]: 11.3 µM

INLKALAALAKVIL [MP-12V, I N L K A L A A L A K V I L]
MCD10: concentration of peptide necessary to induce degranulation of 10% of mast cells [1]: 14.87
EC50 [1]: 41.2 µM

INLKALAALAKWIL [MP-12W, I N L K A L A A L A K W I L]
MCD10: concentration of peptide necessary to induce degranulation of 10% of mast cells [1]: 1.47
EC50 [1]: 4.71 µM
Anti-WNV IgG titers in sera on day 28, versus antigen alone [3]: significantly greater
anti-WNV IgG titers, difference versus mice that received MP7 [3]: no significant difference

INLKALAALAKYIL [MP-12Y, I N L K A L A A L A K Y I L]
MCD10: concentration of peptide necessary to induce degranulation of 10% of mast cells [1]: 4.09
EC50 [1]: 11.1 µM

KLKLLLLLKLK-NH2
adjuvant activity as determined by serum anti-PA IgG endpoint titers [4]: did not provide adjuvant activity

KLKLLLLLKLK-OH
adjuvant activity as determined by serum anti-PA IgG endpoint titers [4]: did not provide adjuvant activity

WQWRWWWWWWRRWW-NH2 [Duke Mast C]
Tukey's Multiple Comparison Test versus CT, Significant? P < 0.05? [5]: No
Tukey's Multiple Comparison Test versus Duke Mast F NH2, Significant? P < 0.05? [5]: No
Tukey's Multiple Comparison Test versus Duke Mast I NH2, Significant? P < 0.05? [5]: No
Tukey's Multiple Comparison Test versus rPA, Significant? P < 0.05? [5]: Yes
adjuvant activity: serum anti-rPA IgG titers compared to rPA alone [5]: statistically significant adjuvant activity
% MC/9 Degranulation [1]: 47.90%

WQWRWWWWWWRWWW-NH2 [Duke Mast I]
Tukey's Multiple Comparison Test versus CT, Significant? P < 0.05? [5]: No
Tukey's Multiple Comparison Test versus rPA, Significant? P < 0.05? [5]: Yes
adjuvant activity: serum anti-rPA IgG titers compared to rPA alone [5]: statistically significant adjuvant activity
% MC/9 Degranulation [1]: 30.50%

WRWRWWWWWWRRWW-NH2 [Duke Mast F]
Tukey's Multiple Comparison Test versus CT, Significant? P < 0.05? [5]: No
Tukey's Multiple Comparison Test versus Duke Mast I NH2, Significant? P < 0.05? [5]: No
Tukey's Multiple Comparison Test versus rPA, Significant? P < 0.05? [5]: Yes
adjuvant activity: serum anti-rPA IgG titers compared to rPA alone [5]: statistically significant adjuvant activity
% MC/9 Degranulation [1]: 27.80% and 40.07%

cholera toxin [CT, reference compound]
serum anti-PA IgG geometric means titers (GMT), adjuvant activity [6]: did not significantly augment
Tukey's Multiple Comparison Test versus rPA, Significant? P < 0.05? [5]: Yes
